The values below come from patent US10494405B2, “Methods and compositions for the treatment of arthritis” (THE REGENTS OF THE UNIVERSITY OF MICHIGAN, priority 2015, dated 2019).

Numbered stars: 1 amine (or outer) side, 2 acyl side, 3 side chain; on linkers, the order of the positions; unused ones are H or OH. Bridge positions count the residues as written; N and C are the ends. Square brackets hold non-standard residues; d marks the D form. Peptide text beside a SMILES is read from it. CO = O=C([*:1])[*:2]; Nlys = NCCCCNCC(=O)O

In test [1] the test system is murine pre-OC cell line RAW 264.7. Briefly: In vitro osteoclastogenesis, mouse cells (RAW 264.7). It is filed as cell-based. The source says:
In vitro osteoclastogenesis of murine pre-OC cell line RAW 264.7 in the presence of different doses of BK2.

The subject of test [2] is human cells. Briefly: In vitro osteoclastogenesis, human cells. The class given is cell-based.
Test [3] has as its system SE-activated signaling. Briefly: Inhibition of SE-activated signaling in vitro. It is filed as cell-based. Particulars: read-out: IC50, inhibitor of SE-activated signaling.
Test [4] concerns DBA/1 mice with CIA. Put plainly: Collagen-induced arthritis (CIA) in DBA/1 mice. It is filed as in vivo, mouse. The method, then: A. DBA/1 mice with CIA received weekly ip doses of BK2, 446 pg/gm, or PBS (black) starting on day −1 relative to day of CIA induction, and joint swelling was recorded. N=10 per group. B. DBA/1 mice with CIA received a total of 4 weekly ip doses of BK2, 446 pg/gm, or PBS (black) starting at day 20 relative to day of CIA induction, at the time of arthritis onset, and joint swelling was recorded. Arrows indicate the treatment days. N=10 per group. C. DBA/1 mice with CIA received weekly sq doses of BK2446 pg/gm, or PBS (black) starting at day −1 relative to day of CIA induction, and joint swelling was recorded. N=10 per group. […] E. DBA/1 mice with CIA received a total of 4 weekly sq doses of BK2, 446 pg/gm, or PBS (black) starting at day 20 relative to day of CIA induction, at the time of arthritis onset, and joint swelling was recorded. Arrows indicate the treatment days. N=10 per group.

Take `C[C@H](NC(=O)CN1CCCCNC(=O)NCCCCN(C(=O)[C@@H](N)Cc2c[nH]c3ccccc23)CC(=O)N[C@@H](CC(=O)O)C(=O)N[C@@H](CCCCN)C(=O)N[C@@H](CO)C1=O)C(N)=O` [BK2, Trp-c[Gly(4-aminobutyl)-Asp-Lys-Ser-Gly(4-aminobutyl)]-Ala-NH2] (H-W[Nlys]DKS[Nlys]A-NH2; linker 2-6 via CO): the “IC50 of anti-osteoclastogenic effect in vitro” value in test [1] and in test [2] was “pM-range” each time. Further, the IC50 in test [3] is about 10 mM. Also, in test [4] (CIA mice), the “Inhibition of bone destruction in vivo” value is on record as “inhibition effect”. Moreover, the “Inhibition of osteoclastogenesis in vivo” value in test [4] (CIA mice) was “inhibition effect”. The “Inhibition effect on CIA (joint swelling)” value in test [4] (DBA/1 mice, weekly ip or sq 446 pg/gm, from day -1 or day 20) is “highly potent (picogram-range doses) inhibition effect”. For the same compound, the “Radiological scores (bone destruction)” value in test [4] (FIG. 3D: weekly sq 446 pg/gm starting day -1) and in test [4] (FIG. 3F: 4 weekly sq doses 446 pg/gm starting day 20 (arthritis onset)) was “protective effect on bone destruction” each time.

Usually IC50 stands for the concentration that inhibits the measured activity by half.
